Laboratory results as given in patent US12144792B2, “Therapeutic agents for neurodegenerative diseases” (priority 2016, dated 2024).

How the values were obtained:
[1] = test system: Npc1^−/− mice; assay: Motor function analysis (Open Field Activity Monitor); type: in vivo, mouse; details: 0.1 g/kg from weaning, nine weeks of age, vs untreated littermates
Procedure: Separate groups of Npc1^−/− and Npc1^+/+ mice were left untreated, as controls. Motor function analysis was performed on mice at eight and nine weeks of age using an Open Field Activity Monitor according to manufacturer's instructions (Linton Instruments, Amlogger Software). Each mouse was placed in a plastic cage with bedding and analysed for five minutes. Rears were counted manually. Motor function parameters measured were: • 1. Centre Rearing: mice rearing on hind legs unsupported; • 2. Rearing: mice rearing on hind legs with and without the support of cage walls; • 3. Activity: regular movement of the animal including walks; • 4. Front to Back (FR) count: movement of the animal from front to back of the cage; • 5. Active Time: duration (s/min) of activeness regardless of movement; • 6. Mobile Time: duration (s/min) of mobility; • 7. Rearing Time: duration of any rearing.

[2] = test system: Mucolipidosis Type IIIA (MLIIIA) patient fibroblasts; assay: Lysosomal volume via LysoTracker; type: cell-based, human; details: 1 mM, 6 days, vs untreated
[3] = test system: patients with Tay-Sachs disease; assay: Case studies, patient evaluation (SARA, SCAFI, MoCA, mRDS, EQ-5D-5L); type: in vivo, human
Excerpt: For example, to evaluate overall neurological status, mDRS, a four-domain scale (ambulation, manipulation, language and swallowing), may be applied. Cerebellar function may be evaluated using SARA, an eight-item clinical rating scale (gait, stance, sitting, speech, fine motor function and taxis; range 0-40, where 0 is the best neurological status and 40 the worst), and SCAFI, comprising the 8-m-Walking-Time (8MW; performed by having patients walking twice as quickly as possible from one line to another excluding turning), 9-Hole-Peg-Test (9HPT) and the number of “PATA” repetitions over 10 s. Subjective impairment and quality of life may be evaluated using the EQ-5D-5L questionnaire and VAS. To assess ocular motor function, 3-dimensional videooculography (EyeSeeCam) may be used to measure the peak velocity of saccades, gain of smooth pursuit, peak slow phase velocity of gaze-evoked nystagmus (gaze-holding function), peak slow phase velocity of optokinetic nystagmus, and gain of horizontal vestibulo-ocular reflex. To evaluate the cognitive state, WAIS-R or WISC-W, and MoCA, assessing different cognitive domains, including attention and concentration, executive functions, memory, language, visuoconstructional skills, conceptual thinking, calculations, and orientation with a maximum of 30 points and a cut-off score of 26, may be used. The skilled person will know how to perform these and other such tests.
Before treatment was commenced, examination of the patient indicated a Scale for Assessment and Rating of Ataxia (SARA) score of 15.5/40. In addition, results from the patient's Spinocerebellar Ataxia Functional Index (SCAFI) analysis were: • Mean 8-meters Walking Test (8MW): 21.6 s • MW 9-Hole Pegboard Test Dominant (9HPTD) (right): 48.3 s • MW 9-Hole Pegboard Test Non-Dominant (9HPTND): 44.9 s • MW PATA Word Test: 20 • Montreal Cognitive Assessment (MoCA): 18/30
The day following this examination, the patient was started on therapy with acetyl-leucine, at a dose of 3 g per day for the first week, followed by a dose of 5 g per day for the second week onwards.
The day of the examination, the patient was started on therapy with acetyl-leucine at a dose of 3 g per day for the first week, followed by a dose of 5 g per day for the second week onwards.
The patient was started on therapy with acetyl-leucine at a dose of 1.5 g per day for the first week, followed by a dose of 3 g per day for the second week onwards.

[4] = test system: patients with downbeat nystagmus; assay: Case studies, clinical examination (visual acuity, posturography); type: in vivo, human
Excerpt: The patient was diagnosed with downbeat nystagmus: the patient was severely impaired by blurred vision (oscillopsia) due to the nystagmus, and experienced difficulties while reading and writing. The patient's visual acuity was: right 0.75, left 0.67, binocular 0.83, and the downbeat nystagmus was documented by video-oculography. […] […] […] The patient was able to suppress the nystagmus by visual fixation. In addition, the patient's spatial orientation was improved.

[5] = test system: patient with Lewy Body dementia; assay: Case study, clinical evaluation; type: in vivo, human; details: Ex. 17, Lewy Body dementia; 3 g/day one week, 5 g/day thereafter; after four weeks
Procedure: The patient started taking acetyl-leucine (3 g/day for one week; 5 g/day thereafter) and was evaluated after four weeks. […] Medication was reduced to 3 g/day, and the patient was instructed to stop medication about two weeks later.

[6] = test system: Mucolipidosis Type II (MLII) patient fibroblasts; assay: Lysosomal volume via LysoTracker; type: cell-based, human; details: 1 mM, 6 days, vs untreated
[7] = test system: microtubule-associated protein 1A/1B-light chain 3-phosphatidylethanolamine conjugate (LC3-II); assay: LC3-II levels relative to tubulin loading control; type: in vivo, mouse; details: NPC1−/− mice, 0.1 g/kg body weight daily from 3 weeks of age; sacrificed at 8 weeks
Procedure: The Niemann-Pick Disease Type C (NPC) mouse model shares a number of pathological features with Alzheimer's disease (AD) as described herein. […] Mice were sacrificed at 8 weeks of age. Levels of amyloid precursor protein C-terminal fragments (APP-CTFs) were evaluated relative to total amyloid precursor protein (APP) levels in the cerebellum for wild type, untreated wild type NPC1^−/− mice, and AL-treated wild type NPC1^−/− mice. Levels of microtubule-associated protein 1A/1B-light chain 3-phosphatidylethanolamine conjugate (LC3-II) were also evaluated relative to levels of tubulin loading control for wild type, untreated wild type NPC1^−/− mice, and AL-treated wild type NPC1^−/− mice.

[8] = test system: patients with progressive supranuclear palsy; assay: Case studies, clinical examination; type: in vivo, human; details: 3 then 5 g per day; for gait and hypokinetic rigid syndrome: 17 days
Procedure: After 27 days of acetyl-leucine treatment, medication was stopped and the patient was re-examined 60 days later. […] Gait analysis was performed before treatment commenced. After 17 days of treatment, medication was stopped and the patient was re-examined 4 days later. […] Gait analysis was performed before treatment commenced. After three weeks of treatment, medication was stopped and the patient was re-examined.

[9] = Ex. 12 Patient 1, approximately 14 weeks after starting

**Q.** What does the source list for `CC(=O)NC(CC(C)C)C(=O)O` (racemic) [acetyl-DL-leucine]?
**A.** motor function properties [1]: significantly improved motor function; LysoTracker fluorescence (lysosomal volume) [2]: trend in reducing LysoTracker fluorescence; symptoms on re-examination ([3]; Ex. 5 Patient 1, Tay-Sachs, 3 then 5 g per day, after four months): stable condition with slightly improved cognitive function but had deterioration of stance, gait and fine motor function; symptoms on re-examination ([3]; Ex. 5 Patient 1, Tay-Sachs, 3 then 5 g per day, after one month): improved fine motor skills and reduced hand tremor; symptoms on re-examination ([3]; Ex. 5 Patient 2, Tay-Sachs, 3 then 5 g per day, after one month): increased enunciation, improved postural stability, and enhanced cognitive function; symptoms on re-examination ([3]; Ex. 5 Patient 3, Tay-Sachs, 1.5 then 3 g per day, after one month): improved postural stability, gait and stance, and could speak single words; patient-reported benefit ([4]; Ex. 12 Patient 1, downbeat nystagmus, 3 then 5 gram per day, after 10 days): significant benefit; nystagmus, clinical examination by two independent examiners [4, 9]: reduction of the nystagmus; posturography [4, 9]: reduction of postural sway; side-effects ([4]; Ex. 12 Patient 1, continued treatment at 5 gram per day): no side-effects resulted; symptoms ([4]; Ex. 12 Patient 2, downbeat nystagmus, 3 g/day first week, 5 g/day thereafter): improvement of gait; patient-reported symptoms [5]: increased fatigue and a deterioration of balance and speech; LysoTracker fluorescence (lysosomal volume) [6]: statistically significant reduction in LysoTracker fluorescence; LC3-II levels relative to tubulin [7]: lowering of LC3-II; dizziness and gait ([8]; Ex. 11 Patient 1, PSP, 27 days): significant reduction of dizziness and slight improvement of gait; gait and hypokinetic rigid syndrome ([8]; Ex. 11 Patient 2, PSP): no significant improvement of gait or hypokinetic rigid syndrome; gait and hypokinetic rigid syndrome ([8]; Ex. 11 Patient 3, PSP): no significant improvement of gait or hypokinetic rigid syndrome; gait and falls ([8]; Ex. 11 Patient 4, PSP, after three weeks): gait with increased subjective security and with reduced frequency of falls
